Results reported in patent publication US20250324966A1, “ADDITIVE FOR PRESERVING CELLS, TISSUE AND/OR FOOD” (Proteimax Bio Technology Israel LTD, priority 2021, published 2025).

Assays:
fresh strawberries [1] = assay: Preservation of strawberries against fungal contamination, single topical application; conditions: 100 μM peptide in water
Description: (§1) The peptide of SEQ ID NO: 3, which comprises pep5 (SEQ ID NO: 1) and the cell-penetrating peptide (SEQ ID NO: 2), was prepared in a 100 μM solution in water, for direct topical use on the food to be preserved.
The peptide of SEQ ID NO: 15, which comprises the peptide of SEQ ID NO: 9 and the cell penetrating peptide of SEQ ID NO: 2, was prepared in a 100 μM solution in water, for use in the food or plant to be preserved.
The additive prepared according to example 1 was used in experiments for food preservation by single topical application.
The results of groups of 10 strawberries in each condition (test and control) at 0, 12, 24, 36, 48 and 60 h, respectively in A, B, C, D, E and F are shown.

bean seeds = assay: Modulation of the germination rate of bean seeds; parameters: species or system black bean; conditions: single dose 100 μM in water, moist cotton, vs water
Description: To evaluate the effects of the additive of the invention in the modulation of cell division or multiplication in plants, particularly in the modulation of seed germination and/or plant development, an experiment aimed at observing the germination of bean seeds and the subsequent development of seedlings was conducted. Groups of groups of 14 black bean seeds were placed in moist cotton, each group in one condition: control, with application of water; and test, with application of the additive of the invention as described below. The state of the seeds was observed and documented at times 0, 3 and 4, and the pattern and profile of germination of the beans were analyzed.
The results of germination of groups of 14 seeds in moist cotton in each condition (control and test) in 0, 3 and 4 days, respectively in A, B and C are shown.

fresh strawberries [2] = assay: Preservation of strawberries against rot at 4° C.; conditions: 100 μM peptide in water, kept at 4° C., 5 days; intense rot visible in untreated group; FIG. 3 D
Description: as §1
A new experiment with strawberries, now with the test and control groups being kept at a temperature of 4° C.
Representative results of strawberries in each condition (test and control) at 0 h, 24 h, 48 h and 5 days, respectively in A, B, C and D are shown.

roses = assay: Preservation of post-harvest flowers (roses), stems submerged in additive; parameters: species or system Rosa; conditions: single dose 100 μM in water, room temperature (28° C.), 0, 3 and 6 days, vs H2O, FIG. 6
Description: (§2) In this context, as an experimental model to evaluate the preservation of flowers or inflorescences, two different types of flowers and their degradation/preservation profile were evaluated through incubation with water or with a solution of the preservation additive of the invention, keeping the flowers in room temperature for a few days.
(§3) The chosen flowers were the rose (Rose-red) and the Gerbera (Gerbera). Species of the genus Rosa are among the most ornamental flowers cultivated in the world. Species of the genus Gerbera are used as an experimental organism in studies of flowering and flower meristematic development, and because they contain natural coumarin derivatives, they are flowers of phytochemical interest and biological control.
(§4) In this embodiment, the peptide of SEQ ID NO: 15, which comprises the peptide of SEQ ID NO: 9 and the peptide of SEQ ID NO: 2, was used.
(§5) Four flowers were used in each container, the stems being kept submerged with at least 5 cm of the respective liquid during the test period. Aluminum foil was used around the container where the stems were submerged, to protect from the incidence of light. Photographic results of flowers kept in each condition (control and test) at 0, 3 and 6 days are shown. […]

Gerberas = assay: Preservation of post-harvest flowers (Gerberas), stems submerged in additive; parameters: species or system Gerbera; conditions: single dose 100 μM in water, room temperature (28° C.), 0, 3 and 6 days, vs H2O, FIG. 6
Description: as §2, §3, §4, §5

Substance	fruit preservation (visual results, percentage of spoiled fruits) (fresh strawberries [1]; single application, 0-60 h, vs water control, FIGS. 1 and 2)	presence of a fungus with white hyphae on strawberries (fresh strawberries [1]; single topical application, FIG. 1 D and E (36 and 48 h), visible in water control)	seed germination process (number of bean seeds germinated) (bean seeds; room temperature (28° C.), 0, 3 and 4 days, FIGS. 4 and 5)	metabolic state of the shoots or seedlings (bean seeds; room temperature (28° C.))	presence of intense rot in strawberries (fresh strawberries [2])	preservation of flowers (roses), visual (roses)	preservation of flowers (Gerberas), visual (Gerberas)
SEQ ID NO: 3: peptide containing the peptide of SEQ ID NO: 1 (WELVVLGKL) and the cell-penetrating peptide of SEQ ID NO: 2 (YGRKKRRQRRR) in the C-terminal region (WELVVLGKLYGRKKRRQRRR)	great potential for fruit preservation	not detectable	delay in the seed germination process	substantial modulation	not detectable	–	–
SEQ ID NO: 15: peptide containing the peptide of SEQ ID NO: 9 and the cell-penetrating peptide of SEQ ID NO: 2 (WELVVLYGRKKRRQRRR)	–	–	–	–	–	effective preservation	effective preservation
